Structures are written as SMILES.

The text below walks through data of US8557741B2, “3-aminocarbonyl-substituted benzoylcyclohexanediones and their use as herbicides” (Bayer CropScience AG, priority 2010, dated 2013).

Common to all, as to assay type: in vivo
In experiment [1] the test system is Stellaria media. As to the kind of experiment: Post-emergence herbicidal action against harmful plants. As to conditions: 504 h, read-out: Herbicidal action against STEME; for pest or weed control at 80 g/ha: dosage 80 g/ha, visual rating after about 3 weeks (Table D); for pest or weed control at 20 g/ha: dosage 20 g/ha, visual rating after about 3 weeks (Table F). An excerpt:
(§1) The abbreviations used in the tables below denote: • ABUTH Abutilon theophrasti • AMARE Amaranthus retroflexus • ECHCG Echinochloa crus galli • PHBPU Phartoitis purpureum • STEME Stellaria media • ALOMY Alopecurus myosuroides • AVEFA Avena fatua • MATIN Matricaria inodora • POLCO Fallopia convolvulus • VERPE Veronica persica 1. Pre-emergence Herbicidal Action Against Harmful Plants Seeds of monocotyledonous and dicotyledonous weed and crop plants are placed in sandy loam in wood-fibre pots, covered with soil and cultivated in a greenhouse under good growth conditions. 2 to 3 weeks after sowing, the test plants are treated at the one-leaf stage. The compounds according to the invention, formulated in the form of wettable powders (WP) or as emulsion concentrates (EC), are then sprayed as aqueous suspension or emulsion at a water application rate of 600 to 800 I/ha (converted) with the addition of 0.2% of wetting agent onto the green parts of the plants. After the test plants have been kept in the greenhouse under optimum growth conditions for about 3 weeks, the activity of the preparations is rated visually in comparison to untreated controls (herbicidal activity in percent (%): 100% activity=the plants have died, 0% activity=control plants, —=not tested).

Experiment [2] relates to Amaranthus retroflexus. The description is as above. As to conditions: 504 h, dosage 80 g/ha, visual rating after about 3 weeks (Table D), read-out: Herbicidal action against AMARE.
From the text: as §1

Experiment [3] relates to Abutilon theophrasti. The experiment is described as above. The following applies: 504 h, read-out: Herbicidal action against ABUTH; for pest or weed control at 80 g/ha: dosage 80 g/ha, visual rating after about 3 weeks (Table D); for pest or weed control at 20 g/ha: dosage 20 g/ha, visual rating after about 3 weeks (Table F).
From the text: as §1

Experiment [4] concerns Fallopia convolvulus. The experiment is described as above. As to conditions: 504 h, dosage 80 g/ha, visual rating after about 3 weeks (Table D), read-out: Herbicidal action against POLCO.
From the text: as §1

Experiment [5] has as its system Echinochloa crus galli. Described as above. As to conditions: 504 h, read-out: Herbicidal action against ECHCG; for pest or weed control at 80 g/ha: dosage 80 g/ha, visual rating after about 3 weeks (Table D); for pest or weed control at 20 g/ha: dosage 20 g/ha, visual rating after about 3 weeks (Table F).
From the text: as §1

The test system of experiment [6] is Phartoitis purpureum. The experiment is described as above. The following applies: 504 h; for pest or weed control at 80 g/ha: dosage 80 g/ha, visual rating after about 3 weeks (Table D), read-out: Herbicidal action against PHBPU; for pest or weed control at 20 g/ha: dosage 20 g/ha, visual rating after about 3 weeks (Table F), read-out: Herbicidal action against PHPBU.
From the text: as §1

The test system of experiment [7] is Veronica persica. Described as above. As to conditions: 504 h, read-out: Herbicidal action against VERPE; for pest or weed control at 80 g/ha: dosage 80 g/ha, visual rating after about 3 weeks (Table D); for pest or weed control at 20 g/ha: dosage 20 g/ha, visual rating after about 3 weeks (Table F).
From the text: as §1

Experiment [8] relates to Stellaria media. As to the kind of experiment: Pre-emergence herbicidal action against harmful plants. The following applies: 504 h, dosage 320 g/ha, visual assessment after 3 weeks (Table A), read-out: Herbicidal action against STEME. An excerpt: (§2) The abbreviations used in the tables below denote: • ABUTH Abutilon theophrasti • AMARE Amaranthus retroflexus • ECHCG Echinochloa crus galli • PHBPU Phartoitis purpureum • STEME Stellaria media • ALOMY Alopecurus myosuroides • AVEFA Avena fatua • MATIN Matricaria inodora • POLCO Fallopia convolvulus • VERPE Veronica persica 1. Pre-emergence Herbicidal Action Against Harmful Plants Seeds of monocotyledonous and dicotyledonous weed plants and crop plants are placed in wood-fibre pots in sandy loam and covered with soil. The compounds according to the invention and the compounds known from the prior art, formulated in the form of wettable powders (WP) or as emulsion concentrates (EC), are then applied as aqueous suspension or emulsion at a water application rate of 600 to 800 I/ha (converted) with the addition of 0.2% of wetting agent to the surface of the covering soil. After the treatment, the pots are placed in a greenhouse and kept under good growth conditions for the test plants. The visual assessment of the damage to the test plants is carried out after a trial period of 3 weeks by comparison with untreated controls (herbicidal activity in percent (%): 100% activity=the plants have died, 0% activity=like control plants, —=not tested). The results of comparative table A show the compounds according to the invention have a higher herbicidal activity than the compounds of the greatest structural similarity known from the closest prior art.

Experiment [9] relates to Amaranthus retroflexus. The description is as above. As to conditions: 504 h, read-out: Herbicidal action against AMARE; for pest or weed control at 320 g/ha: dosage 320 g/ha, visual assessment after 3 weeks (Table A); for pest or weed control at 80 g/ha: dosage 80 g/ha, visual assessment after 3 weeks (Table B).
From the text: as §2

The test system of experiment [10] is Abutilon theophrasti. The experiment is described as above. The following applies: Abutilon theophrasti, 504 h, read-out: Herbicidal action against ABUTH; for pest or weed control at 320 g/ha: dosage 320 g/ha, visual assessment after 3 weeks (Table A); for pest or weed control at 80 g/ha: dosage 80 g/ha, visual assessment after 3 weeks (Table B).
From the text: as §2

Experiment [11] concerns Alopecurus myosuroides. Described as above. The following applies: dosage 320 g/ha, visual assessment after 3 weeks (Table A).
From the text: as §2

For experiment [12], the system named is Echinochloa crus galli. The description is as above. As to conditions: Echinochloa, 504 h, dosage 320 g/ha, visual assessment after 3 weeks (Table A), read-out: Herbicidal action against ECHCG.
From the text: as §2

Experiment [13] deals with Matricaria inodora. Described as above. The following applies: Tripleurospermum inodorum, 504 h, dosage 320 g/ha, visual assessment after 3 weeks (Table A), read-out: Herbicidal action against MATIN.
From the text: as §2

The test system of experiment [14] is Veronica persica. The experiment is described as above. As to conditions: 504 h, read-out: Herbicidal action against VERPE; for pest or weed control at 320 g/ha: dosage 320 g/ha, visual assessment after 3 weeks (Table A); for pest or weed control at 80 g/ha: dosage 80 g/ha, visual assessment after 3 weeks (Table B).
From the text: as §2

Experiment [15] relates to VIOTR. As to the kind of experiment: Post-emergence herbicidal action against harmful plants. The following applies: dosage 20 g/ha, visual rating after about 3 weeks (Table F). As for the experimental part: as §1, with “Seeds” for “The abbreviations used in the tables below denote: • ABUTH Abutilon theophrasti • AMARE Amaranthus retroflexus • ECHCG Echinochloa crus galli • PHBPU Phartoitis purpureum • STEME Stellaria media • ALOMY Alopecurus myosuroides • AVEFA Avena fatua • MATIN Matricaria inodora • POLCO Fallopia convolvulus • VERPE Veronica persica 1. Pre-emergence Herbicidal Action Against Harmful Plants Seeds”

Experiment [16] deals with Matricaria inodora. The experiment is described as above. As to conditions: Tripleurospermum inodorum, 504 h, dosage 80 g/ha, visual rating after about 3 weeks (Table D), read-out: Herbicidal action against MATIN.
From the text: as §1

Experiment [17] concerns Avena fatua. The experiment is described as follows: Pre-emergence herbicidal action against harmful plants. As to conditions: dosage 320 g/ha, visual assessment after 3 weeks (Table A).
From the text: as §2

The subject of experiment [18] is Phartoitis purpureum. The description is as above. As to conditions: dosage 320 g/ha, visual assessment after 3 weeks (Table A).
From the text: as §2

On to `CCS(=O)(=O)c1ccc(C(=O)C2=C(O)CCCC2=O)c(Cl)c1OCC(=O)N(C)C` [Compound S5, reference compound], for which the pest or weed control at 80 g/ha in [1] amounted to 80%; in experiment [2], 80%; in [3], 90%; in [4], 20%; in [5] it was 40%; in [6] it was 60%. In addition, the pest or weed control at 80 g/ha in experiment [7] was determined as 100%. The pest or weed control at 320 g/ha in [8] came out at 90%; in [9], 100%; in experiment [10], 90%; in experiment [12], 100%; in [13], 90%; in experiment [14], 100%. The “Herbicidal action against ALOMY” value in experiment [11] is 0%.

For the molecule `CCS(=O)(=O)c1ccc(C(=O)C2=C(SCC(=O)OC)CCCC2=O)c(Cl)c1OCC(=O)N(C)C` [Compound S9, reference compound], the “Herbicidal action against VIOTR” value in [15] was determined as 60%. In addition, the pest or weed control at 20 g/ha was 70% in experiment [1]; 80% in [3]; 90% in [5]; 60% in experiment [6]; 80% in experiment [7]. The pest or weed control at 80 g/ha in [9] was found to be 40%; in experiment [10], 20%; in [14], 20%.

Regarding `CCN(C)C(=O)COc1c(S(C)(=O)=O)ccc(C(=O)C2=C(O)CCCC2=O)c1Cl` [Compound S7, reference compound], the pest or weed control at 80 g/ha in experiment [1] was determined as 90%; in experiment [2] it was 70%; in [3], 90%; in experiment [4], 10%; in experiment [5], 60%; in [6] it was 90%. Moreover, the pest or weed control at 80 g/ha was 80% in experiment [16] and 100% in experiment [7]. Besides, the pest or weed control at 320 g/ha amounted to 90% in [8]; 100% in experiment [9]; 80% in [10]; 80% in experiment [12]; 100% in experiment [13]; 100% in experiment [14]. Besides, the “Herbicidal action against AVEFA” value in experiment [17] came to 0%.

As to `CCS(=O)(=O)c1ccc(C(=O)C2=C(O)CCCC2=O)c(C(F)(F)F)c1OCC(=O)N(C)C` [Compound E5], the pest or weed control at 80 g/ha was determined as 90% in experiment [1]; 80% in [2]; 90% in [3]; 80% in experiment [4]; 90% in [5]; 90% in experiment [6]. Moreover, the pest or weed control at 80 g/ha in [7] was found to be 100%. Further, the pest or weed control at 320 g/ha in [8] was found to be 90%; in experiment [9], 100%; in experiment [10], 100%; in [12], 100%; in [13], 100%; in [14], 100%. The “Herbicidal action against ALOMY” value in experiment [11] stood at 100%.

In the case of `CCS(=O)(=O)c1ccc(C(=O)C2=C(SCC(=O)OC)CCCC2=O)c(C(F)(F)F)c1OCC(=O)N(C)C` [Compound E9], the “Herbicidal action against VIOTR” value in [15] amounted to 100%. Also, the pest or weed control at 20 g/ha in [1] is 90%; in experiment [3] it was 100%; in experiment [5], 90%; in [6], 80%; in experiment [7], 100%. Further, the pest or weed control at 80 g/ha in experiment [9], in experiment [10] and in experiment [14] was 90% in each case.

On to `CCN(CC)C(=O)COc1c(S(=O)(=O)CC)ccc(C(=O)C2=C(O)CCCC2=O)c1Cl` [Compound S3, reference compound], for which the pest or weed control at 80 g/ha in experiment [1] is 90%; in experiment [2] it was 100%; in [3], 90%; in [4], 40%; in experiment [5], 0%; in experiment [6] it was 60%. The pest or weed control at 80 g/ha in experiment [16] turned out to be 70%; in experiment [7], 90%. For the same molecule, the pest or weed control at 320 g/ha was determined as 50% in experiment [8]; 80% in [9]; 70% in experiment [10]; 50% in experiment [12]; 80% in experiment [13]; 100% in experiment [14]. The “Herbicidal action against PHBPU” value in experiment [18] came to 40%.
